Experimental data published in paper PMC8589634 (The Journal of Prevention of Alzheimer's Disease, 2021).

What was measured:
[1] = system: patients with mild or mild/moderate AD; assay: LMTM Phase 3 exposure groups against historical placebo meta-analysis; type: in vivo, human; conditions: 8mg/day
[2] = system: healthy volunteers
[3] = system: healthy volunteers; assay: Brain spectroscopy after NR supplementation; type: in vivo, human; conditions: two weeks of NR supplementation
[4] = system: AD and PD patients; assay: Posiphen phase 2a studies in AD and PD; type: in vivo, human
[5] = system: patients with agitation in Alzheimer’s dementia; assay: Brexpiprazole phase 3 studies, post-hoc CMAI-IPA; type: in vivo, human
[6] = system: patients with agitation in Alzheimer’s dementia; assay: Brexpiprazole phase 3 pooled CGI-S and CMAI responder analysis; type: in vivo, human
[7] = system: PSEN1-AD neurons; conditions: screen of existing drug library; earlier work of the authors; cited from earlier work
[8] = system: patients with MCI or PD; assay: Cerebral blood flow by pCASL MRI after clenbuterol; type: in vivo, human
[9] = system: patients with MCI or PD; assay: Safety and tolerability of single doses of clenbuterol; type: in vivo, human
[10] = system: patients with AD and agitation/aggression; assay: Lit-AD randomized trial of low-dose lithium; type: in vivo, human
[11] = system: subjects with moderate AD; assay: Masupirdine phase-2 trial, NPI-12 agitation/aggression subgroup analysis; type: in vivo, human
[12] = system: subjects with moderate AD; assay: Masupirdine phase-2 trial, NPI-12 psychosis subgroup analysis; type: in vivo, human
[13] = system: patients with PD psychosis and PD dementia; assay: HARMONY trial, post hoc PD dementia subgroup; type: in vivo, human
[14] = system: patients with mild-to-moderate AD; assay: Open-label study of simufilam, interim analysis; type: in vivo, human
[15] = system: AD patients; conditions: cited from earlier work
[16] = system: GRN mutation carriers; conditions: repeat administration; earlier Phase 2 study; cited from earlier work
[17] = first dose 80µg, 3 hours post-dose, n=8
[18] = second visit, 1mg nadolol 2.5 hours before clenbuterol, n=4
[19] = second visit, clenbuterol monotherapy, n=4
[20] = 80µg single dose, patients affected

CN(C)c1ccc2c(c1)Sc1cc(N(C)C)ccc1N2.CS(=O)(=O)O.CS(=O)(=O)O [LMTM, leuco-methylthionine dihydromesylate]
decline on ADAS-cog11 over 12 months ([1]; above-threshold plasma levels): 1.58±0.46 units | decline on ADAS-cog11 over 12 months ([1]; below-threshold exposure): 4.74±0.60 units

CC(=O)Nc1nc(F)c(CN2CC[C@H](OCc3noc(C)n3)C[C@@H]2C)s1 [LY3372689]
maximum tolerated dose ([2]; SAD): not achieved | tolerability ([2]; up to the highest dose in each study): generally well tolerated | food effect on AUC (3 mg QD, fed vs fasted): minimal effect | food effect, decrease of Cmax (3 mg QD, fed vs fasted): 43% | food effect, increase of tmax (3 mg QD, fed vs fasted): 5 h | exposure (AUC and Cmax) vs dose (SAD 0.15–16 mg and MAD 1, 3, 7 mg): generally dose-proportional | renal clearance (single or multiple dosing): not a major contributor

NC(=O)c1ccc[n+]([C@@H]2O[C@H](CO)[C@@H](O)[C@H]2O)c1 [NR, Nicotinamide Riboside]
CK/ATPase activity and GSH levels ([3]; N=4): Only a small difference | brain NAD+ and redox ratio (RR) ([3]; N=4, preliminary): elevations

CN1CC[C@]2(C)c3cc(OC(=O)Nc4ccccc4)ccc3N(C)[C@H]12 [Posiphen]
Aβ42/40 ratio ([4]; AD patients): improved | axonal health as measured by NfL ([4]; AD patients): improved axonal health | sAPPα, sAPPβ, Tau, p-Tau ([4]; AD patients): reduced | ADAS-Cog 11 ([4]; AD patients, 80 mg QD for 25 +/− 2 days, vs baseline): statistically significant improvements | WAIS coding ([4]; AD patients, 80 mg QD, vs baseline): statistically significant improvements | UPDRS, all 4 parts ([4]; PD patients): strong trends | WAIS coding test ([4]; PD patients): statistically significant improvements | inflammation ([4]; treated patients, to baseline or to placebo): statistically significantly lowered

O=c1ccc2ccc(OCCCCN3CCN(c4cccc5sccc45)CC3)cc2[nH]1 [brexpiprazole]
CMAI-IPA, adjusted mean difference vs placebo ([5]; Study 1, 2 mg/day (n=138) vs placebo (n=131), baseline to Week 12, MMRM): −2.34 | CMAI-IPA, adjusted mean difference vs placebo ([5]; Study 2, titrated to 2 mg/day (n=77) vs placebo (n=74), Week 12, MMRM): −2.79 | patients with CGI-S score of 1 or 2 ([6]; 2 mg/day, week 12, 140/237): 59.1% | patients with improvement in CMAI of at least 10 points ([6]; 2 mg/day, week 12, 177/237): 74.7% | patients with improvement on CGI-S of at least 1 point ([6]; 2 mg/day, week 12, 188/237): 79.3% | difference vs placebo, CGI-S score of 1 or 2 ([6]; week 12, p = 0.0033): 13.5% | difference vs placebo, CMAI improvement of at least 10 points ([6]; week 12, p = 0.0550): 8.0% | difference vs placebo, CGI-S improvement of at least 1 point ([6]; week 12, p=0.0048): 11.4%

CC(C)C[C@H]1C(=O)N2CCC[C@H]2[C@]2(O)O[C@](NC(=O)[C@@H]3C=C4c5cccc6[nH]c(Br)c(c56)C[C@H]4N(C)C3)(C(C)C)C(=O)N12 [bromocriptine]
modification of Aβ production [7]: most potent modifier of Aβ production

CC(C)(C)NCC(O)c1cc(Cl)c(N)c(Cl)c1 (centres unmarked) [clenbuterol]
increase in CBF, amygdala [8, 17]: 14.3% | increase in CBF, hippocampus [8, 17]: 20.3% | increase in CBF, thalamus [8, 17]: 13.1% | Mean Relative Difference in perfusion, hippocampus [8, 18]: 13.7±5.9% | Mean Relative Difference in perfusion, thalamus [8, 18]: 16.2±5.2% | Mean Relative Difference in perfusion, amygdala [8, 19]: 8.1±11.5% | Mean Relative Difference in perfusion, hippocampus [8, 19]: 18.6±15.1% | Mean Relative Difference in perfusion, thalamus [8, 19]: 21.0±10.8% | increase in heart rate, mean [SD] ([9]; 80µg single dose): 12.9 [8.2] bpm | palpitations [9, 20]: 1/8 | tremor [9, 20]: 4/8 | safety and tolerability ([9]; single doses of 80µg): safe and well tolerated

O=C([O-])[O-].[Li+].[Li+] [lithium, lithium carbonate]
moderate or marked improvement (CGI) ([10]; 12 weeks): 36.8% | proportion of responders ([10]; 30% reduction in NPI agitation/aggression plus psychosis and CGI much or very much improved, 12 weeks): 31.6% | reduction vs placebo in patients with high Young Mania Rating Scale scores (β) ([10]; 95%CI 1.18 to 8.94): 5.06 | improvement on NPI delusions and irritability/lability ([10]; exploratory analyses): greater than placebo | change in NPI agitation/aggression ([10]; lithium carbonate 150–600 mg daily, 12 weeks, linear mixed effects model): not significantly superior to placebo | safety outcomes ([10]; vs placebo): did not differ significantly from placebo

COc1ccc2c(c1)c(CN1CCN(C)CC1)cn2S(=O)(=O)c1ccccc1Br [masupirdine]
effect size (Cohen’s d), agitation/aggression ([11]; 50 mg, end of 26 weeks): 0.66 | NPI-12 agitation/aggression scores ([11]; 50 & 100 mg arms, Week 13, MMRM): statistically significant (p<0.01) reduction | NPI-12 psychosis score vs placebo ([12]; 50 mg, Week 4 & 13, p<0.05, MMRM): significant reduction | NPI-12 psychosis score vs placebo ([12]; 100 mg, Week 26, p<0.1): trend

CC(C)(C)NCC(O)COc1cccc2c1CC(O)C(O)C2 (centres unmarked) [nadolol]
peripheral cardiovascular and metabolic effects of clenbuterol ([9]; 1mg nadolol 2.5 hours before clenbuterol): mostly eliminated

CC(C)COc1ccc(CNC(=O)N(Cc2ccc(F)cc2)C2CCN(C)CC2)cc1 [pimavanserin]
sustained response at weeks 8 and 12 ([13]; 34 mg, open-label period, 36 of 49): 73.5% | patients who met relapse criteria ([13]; at the time the study was stopped, n=16): 1 | any TEAE ([13]; double-blind period): 31.3% | serious TEAEs ([13]; double-blind period): No patients | risk of psychosis relapse, hazard ratio vs placebo ([13]; double-blind period, Cox regression, 95% CI 0.016, 0.166): 0.052 | any TEAE ([13]; open-label period): 46.9% | decreased appetite ([13]; open-label period): 8.2% | fall ([13]; open-label period): 6.1% | insomnia ([13]; open-label period): 8.2% | serious TEAE ([13]; open-label period): 10.2% | somnolence ([13]; open-label period): 8.2% | urinary tract infection ([13]; open-label period): 6.1% | weight decreased ([13]; open-label period): 8.2% | MMSE mean change from baseline ([13]; open-label, baseline to week 12, SE 0.66): 0.3 | ESRS-A mean change from baseline ([13]; open-label, baseline to week 12, SE 0.74): −1.7 | complete response (SAPS-H+D score=0) ([13]; week 12, of 38 patients evaluated): 42.1%

CN1CCC2(CC1)NCC(=O)N2Cc1ccccc1 [simufilam]
ADAS-Cog11 mean change from baseline to Month 12 ([14]; 100 mg twice-daily oral, first 50 subjects, open-label): −3.23 ± 6.25 points | safety and tolerability ([14]; 12 months): safe and well-tolerated | subjects with no neuropsychiatric symptoms (NPI) ([14]; 12 months, baseline 34%): over 50% | ADAS-Cog11 score, mean ([14]; Month 12, Day 1 mean 16.73 ± 7.86): 13.51 ± 9.20 | subjects with improved ADAS-Cog11 scores ([14]; baseline to Month 12, 50 subjects): 68% | ADAS-Cog11 median change ([14]; baseline to Month 12, first 50 subjects): −4.0 points

Sola: monoclonal antibody comparator (Expedition 1–3)
ADAS-Cog effect size, slowing ([15]; Expedition 1+2 mild individuals): 34.8% | ADCS-ADL effect size, slowing ([15]; Expedition 3): 15.4% | CDR-SB effect size, slowing ([15]; Expedition 3): 15.4%

B1: AL001: human monoclonal IgG1 antibody that blocks and downregulates Sortilin (antibody, chains of the INN, looked up, V domains shown)
VH: QVQLQESGPGLVKPSETLSLTCAVSGYSISSGYYWGWIRQPPGKGLEWIGTIYHSGSTYYNPSLKSRVTISVDTSKNQFSLKLSSVTAADTAVYYCARQGSIKQGYYGMDVWGQGTTVTVSS
VL: DIVMTQSPLSLPVTPGEPASISCRSSQSLLRSTGYNYLDWYLQKPGQSPQLLIYLGSNRASGVPDRFSGSGSGTDFTLKISRAEAEDVGVYYCMQQQEAPLTFGGGTKVEIK
CSF PGRN levels [16]: normalize CSF PGRN levels
